ChEMBL document CHEMBL4033740, “Novel phenanthrene and isocoumarin from the rhizomes of Dioscorea nipponica Makino subsp. rosthornii (Prain et Burkill) C. T. Ting (Dioscoreaceae)” (Bioorg Med Chem Lett, 2017)

System: NCI-H460
Assay: Cytotoxicity against human NCI-H460 cells incubated for 24 hrs by MTT assay
Format: functional, cell-based
Details: NCI-H460, 24 h

| Compound | IC50 [µM] |
| --- | --- |
| CC(=O)O[C@H]1CC[C@@]2(C)C(=CC[C@H]3[C@@H]4C[C@@H]5O[C@]6(CC[C@@H](C)CO6)[C@@H](C)[C@@H]5[C@@]4(C)CC[C@@H]32)C1 | > 50 |
| O=c1oc(-c2ccccc2O)cc2cc3c(c(O)c12)OCO3 | > 50 |
| COc1cc2ccc3c(-c4c(OC)cc(O)c5c4ccc4cc(OC)c(O)cc45)c(OC)cc(O)c3c2cc1O | 23.1 |
| O=C(C[C@@H]1C[C@@H](O)C[C@H](c2ccccc2)O1)c1ccccc1 | > 50 |
| O=C1O[C@H](c2ccccc2)Cc2cc(O)cc(O)c21 | > 50 |
| C[C@H]1[C@H]2[C@H](C[C@H]3[C@@H]4CC=C5C[C@@H](O)CC[C@]5(C)[C@H]4CC[C@]23C)O[C@]12CC[C@@H](CO)CO2 | > 50 |
| CC(C)C[C@H]1NC(=O)[C@@H]2CCCN2C1=O | > 50 |
| O=C(/C=C/C=C/c1ccc(O)cc1)CCc1ccc(O)cc1 | > 50 |
| CCCCC(CC)COC(=O)c1ccccc1C(=O)OCC(CC)CCCC (centres undefined) [BIS(2-ETHYLHEXYL) PHTHALATE] | > 50 |
| C[C@@H]1CC[C@@]2(OC1)O[C@H]1C[C@H]3[C@@H]4CC=C5C[C@@H](O[C@@H]6O[C@H](CO)[C@@H](O[C@@H]7O[C@H](CO)[C@@H](O)[C@H](O)[C@H]7O)[C@H](O)[C@H]6O[C@@H]6O[C@@H](C)[C@H](O)[C@@H](O)[C@H]6O)CC[C@]5(C)[C@H]4CC[C@]3(C)[C@H]1[C@@H]2C [DELTONIN] | 5.81 |
| C[C@@H]1CC[C@@]2(OC1)O[C@H]1C[C@H]3[C@@H]4CC=C5C[C@@H](O[C@@H]6O[C@H](CO)[C@@H](O[C@@H]7O[C@@H](C)[C@H](O)[C@@H](O)[C@H]7O)[C@H](O)[C@H]6O[C@@H]6O[C@@H](C)[C@H](O)[C@@H](O)[C@H]6O)CC[C@]5(C)[C@H]4CC[C@]3(C)[C@H]1[C@@H]2C [DIOSCIN] | 4.56 |
| C[C@@H]1CC[C@@]2(OC1)O[C@H]1C[C@H]3[C@@H]4CC=C5C[C@@H](O)CC[C@]5(C)[C@H]4CC[C@]3(C)[C@H]1[C@@H]2C [DISOGENIN] | > 50 |
| C[C@@H]1CC[C@@]2(OC1)O[C@H]1C[C@H]3[C@@H]4CC=C5C[C@@H](O[C@@H]6O[C@H](CO)[C@@H](O)[C@H](O)[C@H]6O[C@@H]6O[C@@H](C)[C@H](O)[C@@H](O)[C@H]6O)CC[C@]5(C)[C@H]4CC[C@]3(C)[C@H]1[C@@H]2C [OPHIOPOGONIN C] | 5.04 |
| CC[C@H](CC[C@@H](C)[C@H]1CC[C@H]2[C@@H]3CC=C4C[C@@H](O[C@@H]5O[C@H](CO)[C@@H](O)[C@H](O)[C@H]5O)CC[C@]4(C)[C@H]3CC[C@]12C)C(C)C [SITOGLUSIDE] | > 50 |
